Calls of active or inactive are those of the source. The rule behind the calls is not given here.
How the values were obtained:
HLF [1] = test: Antifibrotic activity in TGF-beta induced HLF cell assessed as suppression of alpha-SMA level incubated for 48 hrs by Western blot analysis; type: functional, cell-based; settings: Homo sapiens, DDE = dose-dependent effect
[2] = target: High affinity 3',5'-cyclic-AMP phosphodiesterase 7A (Homo sapiens, UniProt Q13946); test: Inhibition of PDE7A1 (130-482 residues) (unknown origin) expressed in Escherichia coli BL21 using [3H]-cAMP as substrate measured for 15 mins by liquid scintillation counter method
Sequence of High affinity 3',5'-cyclic-AMP phosphodiesterase 7A (Q13946 whole entry, the tested form may be a part): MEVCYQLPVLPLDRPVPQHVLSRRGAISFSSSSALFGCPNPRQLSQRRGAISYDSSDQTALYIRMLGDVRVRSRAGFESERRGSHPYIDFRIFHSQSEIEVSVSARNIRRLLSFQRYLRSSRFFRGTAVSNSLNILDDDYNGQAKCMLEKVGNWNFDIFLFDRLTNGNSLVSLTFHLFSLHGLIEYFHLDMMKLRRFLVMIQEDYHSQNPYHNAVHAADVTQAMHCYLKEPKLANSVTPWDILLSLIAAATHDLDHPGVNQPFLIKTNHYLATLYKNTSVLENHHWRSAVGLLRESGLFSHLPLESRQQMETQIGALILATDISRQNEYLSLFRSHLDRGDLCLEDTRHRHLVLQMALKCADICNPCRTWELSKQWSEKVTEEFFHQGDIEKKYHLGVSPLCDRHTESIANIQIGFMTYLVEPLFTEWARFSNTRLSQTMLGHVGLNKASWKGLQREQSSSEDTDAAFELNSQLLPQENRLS

Rattus norvegicus [3] = test: Antifibrotic activity in bleomycin-induced Sprague-Dawley rat pulmonary fibrosis model assessed as decrease in end-expiratory pause at 150 mg/kg, po administered daily for 28 days; type: functional, organism-based; settings: time 28.0 day
Rattus norvegicus [4] = test: Antifibrotic activity in bleomycin-induced Sprague-Dawley rat lung fibrosis model assessed as decrease in alpha-smooth muscle actin level at 2.5 to 5 mg/kg, ip administered daily for 28 days by Western blot analysis; type: functional, organism-based; settings: dose 2.5-5 mg/kg, time 28.0 day
Rattus norvegicus [5] = test: Antifibrotic activity in bleomycin-induced Sprague-Dawley rat pulmonary fibrosis model assessed as increase in respiratory rate at 2.5 to 5 mg/kg, ip administered daily for 28 days; type: functional, organism-based; settings: dose 2.5-5 mg/kg, time 28.0 day
[6] = target: cGMP-dependent 3',5'-cyclic phosphodiesterase (Homo sapiens, UniProt O00408); test: Inhibition of PDE2A (580 to 919 residues) (unknown origin) expressed in Escherichia coli BL21 using [3H]-cGMP as substrate measured for 15 mins by liquid scintillation counter method
Sequence of cGMP-dependent 3',5'-cyclic phosphodiesterase (O00408 whole entry, the tested form may be a part): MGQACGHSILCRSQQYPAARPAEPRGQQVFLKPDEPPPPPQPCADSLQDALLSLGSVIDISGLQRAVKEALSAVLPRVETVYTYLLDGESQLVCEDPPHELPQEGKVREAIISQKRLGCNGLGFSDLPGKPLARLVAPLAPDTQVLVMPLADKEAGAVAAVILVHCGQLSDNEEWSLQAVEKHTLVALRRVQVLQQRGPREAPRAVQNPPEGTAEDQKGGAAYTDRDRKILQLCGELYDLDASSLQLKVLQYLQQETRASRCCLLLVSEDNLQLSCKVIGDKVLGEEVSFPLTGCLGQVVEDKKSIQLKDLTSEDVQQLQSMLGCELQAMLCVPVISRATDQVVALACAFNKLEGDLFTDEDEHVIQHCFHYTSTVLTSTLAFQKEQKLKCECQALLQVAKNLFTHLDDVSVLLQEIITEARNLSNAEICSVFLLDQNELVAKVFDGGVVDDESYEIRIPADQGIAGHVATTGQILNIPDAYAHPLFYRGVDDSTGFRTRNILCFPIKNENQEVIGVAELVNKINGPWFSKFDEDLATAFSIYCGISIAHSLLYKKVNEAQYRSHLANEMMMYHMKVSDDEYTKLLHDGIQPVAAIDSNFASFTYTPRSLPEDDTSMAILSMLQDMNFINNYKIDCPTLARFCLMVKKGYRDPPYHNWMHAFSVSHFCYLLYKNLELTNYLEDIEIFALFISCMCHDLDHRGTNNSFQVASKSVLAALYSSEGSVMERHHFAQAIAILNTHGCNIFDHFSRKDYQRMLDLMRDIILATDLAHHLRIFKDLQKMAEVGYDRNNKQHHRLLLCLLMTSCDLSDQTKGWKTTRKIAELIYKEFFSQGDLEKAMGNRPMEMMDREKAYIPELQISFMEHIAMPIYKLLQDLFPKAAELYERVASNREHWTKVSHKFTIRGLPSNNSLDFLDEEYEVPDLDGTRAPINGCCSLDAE

HLF [7] = test: Antifibrotic activity in TGF-beta induced HLF cell assessed as decrease in FN level at 10 to 20 uM incubated for 48 hrs by DAPI staining based immunofluorescence microscopic analysis; type: functional; settings: Homo sapiens, dose 10-20 µM
[8] = Volume of distribution at steady state in Sprague-Dawley rat at 5 mg/kg, iv; type: ADME, organism-based; settings: in vivo, read-out: Vdss
Rattus norvegicus [9] = test: Antifibrotic activity in bleomycin-induced Sprague-Dawley rat pulmonary fibrosis model assessed as decrease in relaxation time at 2.5 to 5 mg/kg, ip administered daily for 28 days; type: functional, organism-based; settings: dose 2.5-5 mg/kg, time 28.0 day
Rattus norvegicus [10] = test: Antifibrotic activity in bleomycin-induced Sprague-Dawley rat pulmonary fibrosis model assessed as decrease in relaxation time at 150 mg/kg, po administered daily for 28 days; type: functional, organism-based; settings: time 28.0 day
Rattus norvegicus [11] = test: Antifibrotic activity in bleomycin-induced Sprague-Dawley rat lung fibrosis model assessed as suppression of TGF-beta1 level at 2.5 to 5 mg/kg, ip administered daily for 28 days by Western blot analysis; type: functional, organism-based; settings: dose 2.5-5 mg/kg, time 28.0 day
Rattus norvegicus [12] = test: Antifibrotic activity in bleomycin-induced Sprague-Dawley rat pulmonary fibrosis model assessed as decrease in number of lung foci at 5 mg/kg, ip administered daily for 28 days by H&E staining based histopathological analysis; type: functional, organism-based; settings: time 28.0 day
[13] = target: 3',5'-cyclic-AMP phosphodiesterase 4D (Homo sapiens, UniProt Q08499); test: Inhibition of PDE4D2 (86 to 413 residues) (unknown origin) expressed in Escherichia coli BL21 [3H]-cAMP as substrate measured for 15 mins by liquid scintillation counter method
[14] = target: Voltage-gated inwardly rectifying potassium channel KCNH2 (Homo sapiens, UniProt Q12809); test: Inhibition of hERG ion channel expressed in CHO cells by automated patch clamp electrophysiology method; type: toxicity, cell-based
Sequence of Voltage-gated inwardly rectifying potassium channel KCNH2 (Q12809 whole entry): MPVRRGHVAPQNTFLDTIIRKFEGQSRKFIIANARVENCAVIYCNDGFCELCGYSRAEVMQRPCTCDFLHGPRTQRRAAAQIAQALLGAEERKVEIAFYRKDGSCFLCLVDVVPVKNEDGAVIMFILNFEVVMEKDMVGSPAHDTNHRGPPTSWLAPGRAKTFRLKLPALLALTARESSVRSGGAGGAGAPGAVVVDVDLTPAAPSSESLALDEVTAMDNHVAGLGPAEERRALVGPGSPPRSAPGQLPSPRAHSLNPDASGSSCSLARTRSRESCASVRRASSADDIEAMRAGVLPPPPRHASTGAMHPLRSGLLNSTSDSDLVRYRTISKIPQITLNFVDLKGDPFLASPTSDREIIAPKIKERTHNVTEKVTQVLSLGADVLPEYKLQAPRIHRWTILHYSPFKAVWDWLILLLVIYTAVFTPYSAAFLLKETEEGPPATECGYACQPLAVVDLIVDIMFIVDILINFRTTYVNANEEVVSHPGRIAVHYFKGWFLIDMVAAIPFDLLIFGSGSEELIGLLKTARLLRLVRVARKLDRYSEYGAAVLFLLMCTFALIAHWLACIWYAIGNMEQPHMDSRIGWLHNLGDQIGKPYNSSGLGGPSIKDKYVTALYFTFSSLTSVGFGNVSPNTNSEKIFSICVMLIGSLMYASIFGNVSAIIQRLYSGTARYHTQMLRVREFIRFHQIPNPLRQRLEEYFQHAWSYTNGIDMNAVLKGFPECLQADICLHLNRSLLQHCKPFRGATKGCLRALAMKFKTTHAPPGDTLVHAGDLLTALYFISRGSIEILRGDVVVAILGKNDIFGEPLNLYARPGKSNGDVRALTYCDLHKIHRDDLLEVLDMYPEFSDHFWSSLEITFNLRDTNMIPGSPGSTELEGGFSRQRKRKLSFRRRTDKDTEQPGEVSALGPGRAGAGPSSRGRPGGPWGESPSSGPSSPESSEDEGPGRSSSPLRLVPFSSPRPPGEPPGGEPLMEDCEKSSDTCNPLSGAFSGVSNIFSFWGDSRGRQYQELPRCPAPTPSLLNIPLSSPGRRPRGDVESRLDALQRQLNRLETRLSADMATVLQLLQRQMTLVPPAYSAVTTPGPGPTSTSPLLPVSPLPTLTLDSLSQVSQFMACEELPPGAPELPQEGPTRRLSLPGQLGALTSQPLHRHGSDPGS

[15] = Clearance in Sprague-Dawley rat at 5 mg/kg, iv; type: ADME, organism-based; settings: in vivo
Rattus norvegicus [16] = test: Antifibrotic activity in bleomycin-induced Sprague-Dawley rat lung fibrosis model assessed as decrease in lung fibrosis at 2.5 to 5 mg/kg, ip administered daily for 28 days by Masson's trichrome staining based analysis; type: functional, organism-based; settings: dose 2.5-5 mg/kg, time 28.0 day
HLF [17] = test: Antifibrotic activity in TGF-beta induced HLF cell assessed as suppression of FN level incubated for 48 hrs by Western blot analysis; type: functional, cell-based; settings: Homo sapiens, DDE = dose-dependent effect
[18] = target: T1, cGMP-inhibited 3',5'-cyclic phosphodiesterase 3A (Homo sapiens, UniProt Q14432); test: Inhibition of PDE3A (679 to 1087 residues) (unknown origin) expressed in Escherichia coli BL21 using [3H]-cAMP as substrate at 10000 nM measured for 15 mins by liquid scintillation counter method
T1 sequence (Q14432 whole entry, the tested form may be a part): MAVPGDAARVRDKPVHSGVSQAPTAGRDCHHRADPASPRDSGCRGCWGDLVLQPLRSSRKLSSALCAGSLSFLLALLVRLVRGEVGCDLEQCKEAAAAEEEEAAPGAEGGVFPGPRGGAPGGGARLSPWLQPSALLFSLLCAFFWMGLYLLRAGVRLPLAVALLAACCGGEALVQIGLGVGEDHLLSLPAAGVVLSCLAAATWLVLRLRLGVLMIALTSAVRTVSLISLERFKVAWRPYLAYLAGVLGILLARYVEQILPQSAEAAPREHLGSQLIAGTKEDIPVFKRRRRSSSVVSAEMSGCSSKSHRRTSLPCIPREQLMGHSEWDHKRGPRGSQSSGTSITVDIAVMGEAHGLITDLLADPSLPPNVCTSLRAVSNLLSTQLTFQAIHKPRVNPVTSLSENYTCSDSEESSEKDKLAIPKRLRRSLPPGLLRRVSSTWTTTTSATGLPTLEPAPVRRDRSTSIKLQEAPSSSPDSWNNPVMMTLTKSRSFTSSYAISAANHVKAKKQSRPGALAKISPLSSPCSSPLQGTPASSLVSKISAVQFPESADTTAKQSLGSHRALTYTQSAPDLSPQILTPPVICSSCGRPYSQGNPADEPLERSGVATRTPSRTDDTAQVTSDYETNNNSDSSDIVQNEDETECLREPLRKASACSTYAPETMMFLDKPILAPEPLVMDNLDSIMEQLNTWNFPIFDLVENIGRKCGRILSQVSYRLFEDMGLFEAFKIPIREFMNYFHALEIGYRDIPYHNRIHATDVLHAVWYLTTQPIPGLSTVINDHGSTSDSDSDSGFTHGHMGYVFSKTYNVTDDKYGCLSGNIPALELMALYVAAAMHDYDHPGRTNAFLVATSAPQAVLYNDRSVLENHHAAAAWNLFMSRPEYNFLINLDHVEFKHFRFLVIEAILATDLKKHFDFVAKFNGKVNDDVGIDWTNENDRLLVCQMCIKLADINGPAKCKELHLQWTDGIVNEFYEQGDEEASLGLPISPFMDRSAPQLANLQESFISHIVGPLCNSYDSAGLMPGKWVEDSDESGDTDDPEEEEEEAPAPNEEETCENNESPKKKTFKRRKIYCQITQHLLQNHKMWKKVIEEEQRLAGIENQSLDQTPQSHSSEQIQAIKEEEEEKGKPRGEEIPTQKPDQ

[19] = target: T1, cGMP-inhibited 3',5'-cyclic phosphodiesterase 3A; test: Inhibition of PDE3A (679 to 1087 residues) (unknown origin) expressed in Escherichia coli BL21 using [3H]-cAMP as substrate measured for 15 mins by liquid scintillation counter method
HLF [20] = test: Antifibrotic activity in TGF-beta induced HLF cell assessed as suppression of Col-I level at 10 uM incubated for 48 hrs by Western blot analysis; type: functional, cell-based; settings: Homo sapiens
HLF [21] = test: Antifibrotic activity in TGF-beta induced HLF cell assessed as decrease in alpha-SMA level at 10 to 20 uM incubated for 48 hrs by DAPI staining based immunofluorescence microscopic analysis; type: functional; settings: Homo sapiens, dose 10-20 µM
Rattus norvegicus [22] = test: Antifibrotic activity in bleomycin-induced Sprague-Dawley rat lung fibrosis model assessed as decrease in collagen deposition at 2.5 to 5 mg/kg, ip administered daily for 28 days by Masson's trichrome staining based analysis; type: functional, organism-based; settings: dose 2.5-5 mg/kg, time 28.0 day
[23] = target: High affinity cGMP-specific 3',5'-cyclic phosphodiesterase 9A (Homo sapiens, UniProt O76083); test: Inhibition of PDE9A (181 to 506 residues) (unknown origin) expressed in Escherichia coli BL21 using [3H]-cGMP as substrate at 10000 nM measured for 15 mins by liquid scintillation counter method
Sequence of High affinity cGMP-specific 3',5'-cyclic phosphodiesterase 9A (O76083 whole entry, the tested form may be a part): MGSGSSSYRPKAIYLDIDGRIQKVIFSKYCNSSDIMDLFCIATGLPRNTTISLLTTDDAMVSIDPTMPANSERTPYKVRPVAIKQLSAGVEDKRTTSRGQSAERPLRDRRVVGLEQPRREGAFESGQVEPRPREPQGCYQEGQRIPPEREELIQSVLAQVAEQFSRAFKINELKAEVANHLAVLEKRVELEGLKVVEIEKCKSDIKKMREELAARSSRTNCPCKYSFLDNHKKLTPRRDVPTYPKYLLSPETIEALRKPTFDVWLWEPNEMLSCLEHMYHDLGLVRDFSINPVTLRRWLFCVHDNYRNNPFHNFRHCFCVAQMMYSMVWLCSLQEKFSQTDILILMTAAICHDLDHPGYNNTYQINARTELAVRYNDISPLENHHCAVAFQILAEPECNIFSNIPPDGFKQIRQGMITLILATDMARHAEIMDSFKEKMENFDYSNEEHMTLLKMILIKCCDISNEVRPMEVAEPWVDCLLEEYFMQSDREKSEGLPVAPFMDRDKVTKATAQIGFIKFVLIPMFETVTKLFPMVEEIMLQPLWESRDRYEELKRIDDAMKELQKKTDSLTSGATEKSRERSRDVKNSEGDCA

[24] = target: 3',5'-cyclic-AMP phosphodiesterase 4B (Homo sapiens, UniProt Q07343); test: Inhibition of PDE4B2 (152 to 487 residues) (unknown origin) expressed in Escherichia coli BL21 measured for 15 mins by liquid scintillation counter method
Sequence of 3',5'-cyclic-AMP phosphodiesterase 4B (Q07343 whole entry, the tested form may be a part): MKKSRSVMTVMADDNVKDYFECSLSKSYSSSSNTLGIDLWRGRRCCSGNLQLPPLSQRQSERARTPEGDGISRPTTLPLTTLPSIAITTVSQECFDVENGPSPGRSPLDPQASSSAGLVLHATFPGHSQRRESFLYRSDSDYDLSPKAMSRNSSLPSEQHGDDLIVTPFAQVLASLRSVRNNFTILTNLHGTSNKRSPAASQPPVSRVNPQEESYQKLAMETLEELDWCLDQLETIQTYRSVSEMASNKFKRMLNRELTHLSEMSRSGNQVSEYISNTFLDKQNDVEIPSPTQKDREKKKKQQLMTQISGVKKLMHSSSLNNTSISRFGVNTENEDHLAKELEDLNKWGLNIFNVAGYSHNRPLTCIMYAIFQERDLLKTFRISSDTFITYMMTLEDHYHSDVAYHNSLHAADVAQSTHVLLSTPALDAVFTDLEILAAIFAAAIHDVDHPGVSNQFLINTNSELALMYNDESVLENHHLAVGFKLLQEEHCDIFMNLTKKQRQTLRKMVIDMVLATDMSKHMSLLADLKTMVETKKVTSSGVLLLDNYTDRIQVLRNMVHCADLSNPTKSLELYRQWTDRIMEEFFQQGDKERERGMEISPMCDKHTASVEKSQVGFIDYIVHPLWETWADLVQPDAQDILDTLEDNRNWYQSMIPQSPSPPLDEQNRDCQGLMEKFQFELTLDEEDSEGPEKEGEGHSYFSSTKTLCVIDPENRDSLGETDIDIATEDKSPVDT

HLF [25] = test: Antifibrotic activity in TGF-beta induced HLF cell assessed as suppression of Col-I level incubated for 48 hrs by Western blot analysis; type: functional, cell-based; settings: Homo sapiens, DDE = dose-dependent effect
[26] = Acute toxicity in overnight fasted KM mouse at 2000 mg/kg, po dosed daily for 14 days; type: organism-based; settings: in vivo, 336 h, time 14 day

For `CC1=C(C(=O)O[C@H](C)c2ccccc2)C(c2ccc3c(cnn3C)c2)C(C(=O)O[C@H](C)c2ccccc2)=C(C)N1`, the Activity (HLF [1]) was “Dde”, the IC50 [2] was 1400 nM and the Activity (Rattus norvegicus [3]) was “Active”. The Activity (Rattus norvegicus [4]) was “Active”, the Activity (Rattus norvegicus [5]) was “Active” and the IC50 [6] was 5130 nM. For the same molecule, the Activity (HLF [7]) was “Active”, the Vd [8] was 3.81 L/kg and the Activity (Rattus norvegicus [9]) was “Active”. The Activity (Rattus norvegicus [10]) was “Active”, the Activity (Rattus norvegicus [11]) was “Active” and the Activity (Rattus norvegicus [12]) was “Active”. It also gave an IC50 [13] of 948 nM, an IC50 [14] of over 40000 nM and a clearance [15] of 18.4 mL/min/kg. The Activity (Rattus norvegicus [16]) was “Active”, the Activity (HLF [17]) was “Dde” and the inhibition [18] was under 50%. For the same molecule, the IC50 [19] was over 10000 nM, the Activity (HLF [20]) was “Active” and the Activity (HLF [21]) was “Active”. For the same molecule, the Activity (Rattus norvegicus [22]) was “Active”, the inhibition [23] was under 50% and the IC50 [24] was 619 nM. For the same molecule, the Activity (HLF [25]) was “Dde” and the Activity [26] was “Non-Toxic”.

From ChEMBL document CHEMBL5154941, “Structural Modifications of Nimodipine Lead to Novel PDE1 Inhibitors with Anti-pulmonary Fibrosis Effects” (J Med Chem, 2022)
